Assay results reported in PMC4490028 (Cancer research, 2015).

Key:
[1] = target: T1, human ABCC4 (Homo sapiens, UniProt O15439); assay: In vitro vesicular transport, inside-out Sf9 vesicles expressing human ABCC4
T1 sequence (O15439 1-1325): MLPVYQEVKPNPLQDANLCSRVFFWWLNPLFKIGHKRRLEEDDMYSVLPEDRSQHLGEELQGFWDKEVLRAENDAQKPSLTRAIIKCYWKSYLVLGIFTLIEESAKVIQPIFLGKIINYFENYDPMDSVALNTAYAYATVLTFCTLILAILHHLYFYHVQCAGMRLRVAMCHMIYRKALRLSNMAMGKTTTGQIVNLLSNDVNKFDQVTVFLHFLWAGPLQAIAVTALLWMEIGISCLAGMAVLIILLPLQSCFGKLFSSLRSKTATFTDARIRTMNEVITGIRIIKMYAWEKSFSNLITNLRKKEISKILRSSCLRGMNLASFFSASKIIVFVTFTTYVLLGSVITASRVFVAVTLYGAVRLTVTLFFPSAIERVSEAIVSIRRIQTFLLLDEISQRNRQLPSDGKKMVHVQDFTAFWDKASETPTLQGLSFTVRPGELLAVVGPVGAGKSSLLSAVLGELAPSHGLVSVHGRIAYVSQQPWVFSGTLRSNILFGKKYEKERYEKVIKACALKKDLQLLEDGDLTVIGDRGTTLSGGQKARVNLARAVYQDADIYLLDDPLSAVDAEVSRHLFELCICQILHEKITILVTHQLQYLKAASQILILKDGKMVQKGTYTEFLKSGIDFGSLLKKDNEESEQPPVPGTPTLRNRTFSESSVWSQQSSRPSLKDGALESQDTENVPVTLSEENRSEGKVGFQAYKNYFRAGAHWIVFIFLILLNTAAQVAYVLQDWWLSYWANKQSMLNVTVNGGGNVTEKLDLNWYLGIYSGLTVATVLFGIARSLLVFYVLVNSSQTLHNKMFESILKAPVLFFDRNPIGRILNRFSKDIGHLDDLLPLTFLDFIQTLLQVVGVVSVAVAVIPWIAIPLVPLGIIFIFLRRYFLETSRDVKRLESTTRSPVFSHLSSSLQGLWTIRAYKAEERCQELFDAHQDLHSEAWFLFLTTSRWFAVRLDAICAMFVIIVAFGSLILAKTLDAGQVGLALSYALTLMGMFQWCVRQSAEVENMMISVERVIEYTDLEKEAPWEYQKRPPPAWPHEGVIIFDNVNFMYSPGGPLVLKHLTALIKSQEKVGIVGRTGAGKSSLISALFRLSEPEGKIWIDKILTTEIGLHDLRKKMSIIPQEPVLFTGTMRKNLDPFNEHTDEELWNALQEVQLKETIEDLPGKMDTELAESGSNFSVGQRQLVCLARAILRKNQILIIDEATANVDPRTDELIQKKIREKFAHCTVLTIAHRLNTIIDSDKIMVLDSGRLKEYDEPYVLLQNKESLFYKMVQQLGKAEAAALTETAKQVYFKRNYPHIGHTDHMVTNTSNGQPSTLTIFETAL

[2] = target: human ABCC2 (Homo sapiens, UniProt Q92887); assay: In vitro vesicular transport, inside-out Sf9 vesicles expressing human ABCC2
[3] = target: human ABCC3 (Homo sapiens, UniProt O15438); assay: In vitro vesicular transport, inside-out Sf9 vesicles expressing human ABCC3; assay type: in vitro ADME
[4] = system: Abcc2; assay: Pharmacokinetics; settings: after oral sorafenib 10 mg/kg
[5] = system: Oatp1a/1b;Abcc2; settings: oral sorafenib 10 mg/kg; Oatp1a/1b;Abcc2(−/−) mice
[6] = cited from earlier work
[7] = system: Oatp1a/1b;Abcc2;Abcc3; settings: oral sorafenib 10 mg/kg; Oatp1a/1b;Abcc2;Abcc3(−/−) mice
[8] = Sorafenib plasma concentrations in FVB wildtype mice after oral sorafenib; settings: sorafenib 10 mg/kg oral
[9] = assay type: in vivo, mouse; settings: oral SG 10 mg/kg
[10] = system: Abcc3; assay: Plasma and liver pharmacokinetics after oral sorafenib in Abcc3; assay type: in vivo, mouse; settings: oral sorafenib 10 mg/kg; Abcc3(−/−) mice
[11] = system: mouse intestinal β-glucuronidases; assay: Ex vivo cecal incubations of SG; assay type: in vitro ADME; settings: SG 2 µM, 6-hour period
[12] = system: Oatp1a/1b;Abcc3; assay: Plasma and liver pharmacokinetics after oral sorafenib in Oatp1a/1b; assay type: in vivo, mouse; settings: oral sorafenib 10 mg/kg; Oatp1a/1b;Abcc3(−/−) mice
[13] = system: Abcc2; assay: Pharmacokinetics
[14] = system: Oatp1a/1b; assay: Plasma and liver pharmacokinetics after oral sorafenib in Oatp1a/1b; assay type: in vivo, mouse; settings: oral sorafenib 10 mg/kg; Oatp1a/1b(−/−) mice
[15] = target: rat Abcc2 (Rattus norvegicus, UniProt Q63120); assay: In vitro vesicular transport, inside-out Sf9 vesicles expressing rat Abcc2; settings: 5-min incubation, ATP 4 mM
[16] = system: Abcc3;Abcc4; assay: Plasma and liver pharmacokinetics after oral sorafenib in Abcc3; settings: after oral sorafenib 10 mg/kg; Abcc3;Abcc4(−/−) mice
[17] = system: Abcc4; assay: Plasma and liver pharmacokinetics after oral sorafenib in Abcc4; settings: after oral sorafenib 10 mg/kg; Abcc4(−/−) mice
[18] = target: mouse Abcc2 (Mus musculus, UniProt Q8VI47); assay: In vitro vesicular transport, inside-out Sf9 vesicles expressing mouse Abcc2; settings: SG 10 µM, 5-min incubation, ATP 4 mM
[19] = rifampin 100 µM, SG 10 µM, 5 min
[20] = SG 10 µM, 5-min incubation, ATP 4 mM
[21] = increasing SG concentrations, 5 min, ATP 4 mM
[22] = read-out: Km of SG transport, increasing SG concentrations, 5 min, ATP 4 mM

Sequence of human ABCC2 (Q92887 whole entry): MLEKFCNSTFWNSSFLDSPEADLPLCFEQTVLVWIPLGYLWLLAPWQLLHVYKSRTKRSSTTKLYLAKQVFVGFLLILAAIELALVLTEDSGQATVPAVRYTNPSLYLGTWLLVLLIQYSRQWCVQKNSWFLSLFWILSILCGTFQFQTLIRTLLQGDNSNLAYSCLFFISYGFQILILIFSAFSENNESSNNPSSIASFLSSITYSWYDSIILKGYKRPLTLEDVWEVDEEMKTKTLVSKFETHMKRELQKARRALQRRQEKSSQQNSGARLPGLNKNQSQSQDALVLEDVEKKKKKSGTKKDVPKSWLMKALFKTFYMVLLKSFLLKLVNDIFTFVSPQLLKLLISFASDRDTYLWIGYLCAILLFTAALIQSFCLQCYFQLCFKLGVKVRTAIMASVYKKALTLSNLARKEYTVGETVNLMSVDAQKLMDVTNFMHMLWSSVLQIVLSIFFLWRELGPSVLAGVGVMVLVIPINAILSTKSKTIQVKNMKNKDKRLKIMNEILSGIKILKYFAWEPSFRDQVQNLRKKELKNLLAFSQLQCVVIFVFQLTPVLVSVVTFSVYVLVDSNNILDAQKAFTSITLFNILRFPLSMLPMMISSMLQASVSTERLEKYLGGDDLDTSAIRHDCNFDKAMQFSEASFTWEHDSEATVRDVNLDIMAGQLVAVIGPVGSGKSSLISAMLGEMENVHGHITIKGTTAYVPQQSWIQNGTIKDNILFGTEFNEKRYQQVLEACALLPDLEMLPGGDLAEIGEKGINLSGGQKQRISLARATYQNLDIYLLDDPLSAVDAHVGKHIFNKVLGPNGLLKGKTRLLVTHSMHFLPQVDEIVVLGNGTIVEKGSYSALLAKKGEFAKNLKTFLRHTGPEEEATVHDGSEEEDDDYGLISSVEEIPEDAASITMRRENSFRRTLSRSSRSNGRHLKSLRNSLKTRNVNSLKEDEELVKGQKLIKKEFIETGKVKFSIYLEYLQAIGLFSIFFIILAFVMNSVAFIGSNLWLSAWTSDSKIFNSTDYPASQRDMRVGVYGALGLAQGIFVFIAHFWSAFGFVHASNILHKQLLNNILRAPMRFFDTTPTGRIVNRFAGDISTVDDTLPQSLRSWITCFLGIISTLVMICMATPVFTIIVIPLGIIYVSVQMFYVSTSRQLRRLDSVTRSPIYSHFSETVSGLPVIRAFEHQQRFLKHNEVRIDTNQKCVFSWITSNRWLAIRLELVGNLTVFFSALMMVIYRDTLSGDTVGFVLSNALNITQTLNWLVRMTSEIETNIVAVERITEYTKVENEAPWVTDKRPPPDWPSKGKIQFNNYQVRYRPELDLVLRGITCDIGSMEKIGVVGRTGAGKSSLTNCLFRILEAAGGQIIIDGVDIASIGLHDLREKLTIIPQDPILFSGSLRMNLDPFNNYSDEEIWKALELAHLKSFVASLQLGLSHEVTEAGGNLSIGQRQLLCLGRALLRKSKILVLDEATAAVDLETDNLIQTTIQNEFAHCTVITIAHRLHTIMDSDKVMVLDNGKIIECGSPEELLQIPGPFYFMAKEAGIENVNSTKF
Sequence of human ABCC3 (O15438 whole entry): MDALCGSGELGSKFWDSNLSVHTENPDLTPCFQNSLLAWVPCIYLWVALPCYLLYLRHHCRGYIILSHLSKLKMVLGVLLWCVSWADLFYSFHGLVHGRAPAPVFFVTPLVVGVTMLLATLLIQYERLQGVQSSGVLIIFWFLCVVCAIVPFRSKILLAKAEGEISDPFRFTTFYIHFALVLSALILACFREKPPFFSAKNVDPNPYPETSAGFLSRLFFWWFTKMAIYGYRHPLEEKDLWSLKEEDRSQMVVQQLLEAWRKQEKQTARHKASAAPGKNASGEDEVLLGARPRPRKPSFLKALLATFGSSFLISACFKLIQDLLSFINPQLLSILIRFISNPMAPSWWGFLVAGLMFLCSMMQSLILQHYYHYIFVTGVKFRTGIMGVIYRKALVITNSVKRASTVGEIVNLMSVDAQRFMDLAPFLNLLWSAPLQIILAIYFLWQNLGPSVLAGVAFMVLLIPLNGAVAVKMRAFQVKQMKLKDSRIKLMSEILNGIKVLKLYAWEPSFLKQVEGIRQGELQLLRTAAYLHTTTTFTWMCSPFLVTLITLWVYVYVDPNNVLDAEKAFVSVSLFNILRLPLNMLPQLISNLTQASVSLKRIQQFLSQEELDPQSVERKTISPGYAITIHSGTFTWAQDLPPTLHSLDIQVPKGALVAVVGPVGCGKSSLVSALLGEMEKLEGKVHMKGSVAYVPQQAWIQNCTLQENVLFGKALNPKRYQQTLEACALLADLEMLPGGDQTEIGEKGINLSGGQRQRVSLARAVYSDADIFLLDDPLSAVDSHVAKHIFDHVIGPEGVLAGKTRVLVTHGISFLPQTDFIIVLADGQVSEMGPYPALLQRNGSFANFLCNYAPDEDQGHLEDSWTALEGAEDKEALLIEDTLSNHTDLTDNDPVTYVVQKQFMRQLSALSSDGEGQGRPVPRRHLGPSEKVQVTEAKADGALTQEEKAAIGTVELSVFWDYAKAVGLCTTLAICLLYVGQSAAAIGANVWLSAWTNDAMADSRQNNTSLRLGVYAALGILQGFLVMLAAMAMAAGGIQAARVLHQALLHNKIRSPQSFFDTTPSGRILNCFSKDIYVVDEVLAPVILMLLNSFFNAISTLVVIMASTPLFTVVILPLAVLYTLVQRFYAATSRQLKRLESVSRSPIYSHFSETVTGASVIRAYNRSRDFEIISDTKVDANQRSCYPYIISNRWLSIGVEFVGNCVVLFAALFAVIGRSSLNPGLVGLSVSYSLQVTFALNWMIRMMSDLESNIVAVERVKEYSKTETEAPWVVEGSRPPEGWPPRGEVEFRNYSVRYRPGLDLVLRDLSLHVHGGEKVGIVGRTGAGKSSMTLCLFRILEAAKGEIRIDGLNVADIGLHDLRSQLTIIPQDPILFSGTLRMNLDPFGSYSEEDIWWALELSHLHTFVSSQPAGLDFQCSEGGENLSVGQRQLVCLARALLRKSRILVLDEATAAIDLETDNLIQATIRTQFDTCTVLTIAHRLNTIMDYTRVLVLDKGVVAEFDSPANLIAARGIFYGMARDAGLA
Sequence of rat Abcc2 (Q63120 whole entry): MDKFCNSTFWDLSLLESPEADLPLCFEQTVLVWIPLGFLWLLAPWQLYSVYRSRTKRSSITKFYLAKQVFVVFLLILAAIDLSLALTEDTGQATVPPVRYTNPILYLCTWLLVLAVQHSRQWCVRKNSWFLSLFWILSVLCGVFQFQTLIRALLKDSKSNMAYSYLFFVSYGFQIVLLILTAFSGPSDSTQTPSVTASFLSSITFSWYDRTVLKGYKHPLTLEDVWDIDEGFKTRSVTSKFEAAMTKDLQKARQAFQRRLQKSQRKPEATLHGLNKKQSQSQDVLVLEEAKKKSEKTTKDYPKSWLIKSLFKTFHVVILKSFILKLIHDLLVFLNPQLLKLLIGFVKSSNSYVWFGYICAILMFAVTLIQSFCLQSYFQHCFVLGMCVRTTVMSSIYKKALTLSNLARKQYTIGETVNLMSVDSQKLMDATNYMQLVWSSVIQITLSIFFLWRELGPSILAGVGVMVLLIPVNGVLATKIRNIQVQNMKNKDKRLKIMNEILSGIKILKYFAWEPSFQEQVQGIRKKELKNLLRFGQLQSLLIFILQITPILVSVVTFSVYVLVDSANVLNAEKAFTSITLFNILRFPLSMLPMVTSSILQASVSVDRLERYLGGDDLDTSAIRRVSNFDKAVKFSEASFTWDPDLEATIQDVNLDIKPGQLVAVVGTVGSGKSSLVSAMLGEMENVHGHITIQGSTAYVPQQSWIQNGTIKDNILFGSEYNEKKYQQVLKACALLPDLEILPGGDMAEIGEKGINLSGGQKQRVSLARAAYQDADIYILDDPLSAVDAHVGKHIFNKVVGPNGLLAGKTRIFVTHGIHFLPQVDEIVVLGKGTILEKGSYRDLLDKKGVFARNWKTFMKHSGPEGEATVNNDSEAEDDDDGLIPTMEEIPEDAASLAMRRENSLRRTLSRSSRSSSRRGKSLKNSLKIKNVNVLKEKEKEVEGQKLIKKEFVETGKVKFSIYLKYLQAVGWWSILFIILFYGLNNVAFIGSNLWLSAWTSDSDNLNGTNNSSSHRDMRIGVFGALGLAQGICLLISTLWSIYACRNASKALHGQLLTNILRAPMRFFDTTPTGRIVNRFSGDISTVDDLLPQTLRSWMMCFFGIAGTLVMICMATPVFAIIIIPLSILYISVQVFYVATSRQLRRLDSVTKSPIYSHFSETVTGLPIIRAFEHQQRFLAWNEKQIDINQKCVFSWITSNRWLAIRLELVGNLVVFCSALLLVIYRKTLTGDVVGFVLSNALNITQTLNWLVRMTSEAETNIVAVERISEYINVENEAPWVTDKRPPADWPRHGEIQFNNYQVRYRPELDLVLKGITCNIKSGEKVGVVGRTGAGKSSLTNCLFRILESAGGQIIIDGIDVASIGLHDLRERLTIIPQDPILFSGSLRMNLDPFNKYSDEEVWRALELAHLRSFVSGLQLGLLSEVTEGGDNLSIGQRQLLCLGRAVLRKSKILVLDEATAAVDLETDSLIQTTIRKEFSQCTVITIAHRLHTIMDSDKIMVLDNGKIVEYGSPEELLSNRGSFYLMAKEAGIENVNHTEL

CO[C@H]1/C=C/O[C@@]2(C)Oc3c(C)c(O)c4c(O)c(c(/C=N/N5CCN(C)CC5)c(O)c4c3C2=O)NC(=O)/C(C)=C\C=C\[C@H](C)[C@H](O)[C@@H](C)[C@@H](O)[C@@H](C)[C@H](OC(C)=O)[C@@H]1C [rifampin]
inhibition of ABCC4-mediated SG uptake [1, 19]: sensitive to inhibition | inhibition of ABCC2-mediated SG uptake [2, 19]: sensitive to inhibition | inhibition of ABCC3-mediated SG uptake [3, 19]: sensitive to inhibition

CNC(=O)c1cc(Oc2ccc(NC(=O)Nc3ccc(Cl)c(C(F)(F)F)c3)cc2)ccn1 [sorafenib]
increase in plasma levels in Abcc2(−/−) versus wildtype rats [4]: ~ 2 fold | plasma and liver levels of sorafenib [5]: not substantially altered | average sorafenib plasma steady-state concentrations ([6]; adults and children treated at 400 mg or 200 mg/m^2 twice daily): 10 µM | decrease of systemic exposure to sorafenib by neomycin treatment ([6]; neomycin treatment in humans): more than 50% | plasma and liver levels of sorafenib [7]: not substantially altered | sorafenib plasma steady-state concentrations [8]: 6 to 10 µM | sorafenib uptake relative to control vesicles ([2]; sorafenib 10 µM, 5-min incubation, ATP 4 mM): moderately increased | time until sorafenib was detected in plasma after SG administration ([9]; initial study): 8 h | sorafenib peak levels in plasma of vehicle-pretreated mice ([9]; at 8 hours after SG administration): 226 to 897 ng/mL | sorafenib levels in plasma of neomycin-pretreated mice ([9]; neomycin 200 mg/kg twice daily for 5 days, 8 to 24 hours): below the limit of quantification | time of sorafenib peak levels after SG administration ([9]; vehicle-pretreated mice): 8 h | liver levels of sorafenib versus wildtype [10]: similar | plasma levels of sorafenib versus wildtype [10]: not substantially altered | sorafenib levels formed from SG in crude suspension of cecal content [11]: corresponding increase | liver levels of sorafenib versus wildtype [12]: similar | plasma levels of sorafenib versus wildtype [12]: not substantially altered | biliary output of sorafenib, Abcc2(−/−) compared to wildtype mice ([13]; oral sorafenib 10 mg/kg): not associated with altered | liver uptake of sorafenib, Abcc2(−/−) compared to wildtype mice ([13]; oral sorafenib 10 mg/kg): not associated with altered | plasma disposition of sorafenib, Abcc2(−/−) compared to wildtype mice ([13]; oral sorafenib 10 mg/kg): not associated with altered | liver levels of sorafenib versus wildtype [14]: similar | plasma levels of sorafenib versus wildtype [14]: not substantially altered | plasma sorafenib exposure, lower than wildtype [14]: ~ 25% | transport of sorafenib ([15]; sorafenib 10 µM): weakly

sorafenib-glucuronide [SG]
concentrations of SG in plasma and liver, effect of Abcc4 deficiency [16]: not substantially affected | SG in bile of wildtype or Abcc2(−/−) rats [4]: not detected | SG in plasma of wildtype or Abcc2(−/−) rats [4]: not detected | uptake of SG relative to control vesicles [1, 20]: efficiently increased | transport efficiency, lower than that observed for ABCC2 ([1]; SG transport): about 7 fold | Vmax of SG transport [1, 21]: 221 ± 11 pmol/min/mg | Km [1, 22]: 146 ± 14 µM | uptake of SG relative to control vesicles [2, 20]: efficiently increased | maximal velocity (Vmax) of SG transport [2, 21]: 155 ± 11 pmol/min/mg | SG liver-to-plasma ratio in Abcc2(−/−) versus wildtype mice ([13]; after oral sorafenib 10 mg/kg): decreased | increase in SG liver concentrations in Abcc2(−/−) versus wildtype mice ([13]; after oral sorafenib 10 mg/kg): ~ 3 fold | increase of plasma levels of SG in Abcc2(−/−) versus wildtype mice ([13]; after oral sorafenib 10 mg/kg): ~ 350 fold | reduction of biliary output of SG in Abcc2(−/−) versus wildtype mice ([13]; after oral sorafenib 10 mg/kg, bile collected for 2 hours): ~ 12 fold | urinary excretion ([13]; after oral sorafenib 10 mg/kg, irrespective of Abcc2 status): minor route of elimination | uptake of SG relative to control vesicles [3, 20]: efficiently increased | transport efficiency, lower than that observed for ABCC2 ([3]; SG transport): about 7 fold | Vmax of SG transport [3, 21]: 196 ± 44 pmol/min/mg | Km [3, 22]: 186 ± 72 µM | concentrations of SG in plasma and liver, effect of Abcc4 deficiency [17]: not substantially affected | uptake of SG relative to control vesicles [18]: efficiently increased | uptake of SG relative to control vesicles ([15]; SG 10 µM): efficiently increased

CNC(=O)c1cc(Oc2ccc(NC(=O)Nc3ccc(Cl)c(C(F)(F)F)c3)cc2)cc[n+]1[O-] [sorafenib-N-oxide]
increase in plasma levels in Abcc2(−/−) versus wildtype rats [4]: ~ 2 fold
